Experimental data taken from ChEMBL document CHEMBL5500370, “Discovery of potent and novel dual NAMPT/BRD4 inhibitors for efficient treatment of hepatocellular carcinoma” (Eur J Med Chem, 2024).

What was measured:
[1] = target: Nicotinamide phosphoribosyltransferase (Homo sapiens, UniProt P43490); test: Inhibition of recombinant NAMPT (unknown origin) by fluorescence based assay
[2] = target: Bromodomain-containing protein 4 (Homo sapiens, UniProt O60885); test: Inhibition of BRD4 (unknown origin) incubated for 120 mins by TR-FRET assay
Hep 3B2 [3] = test: cells; settings: Homo sapiens, Hep3B, 120 h
Hep 3B2 [4] = test: Induction of apoptosis in human Hep3B cells assessed as early apoptotic cells at 10 uM measured after 72 hrs by Annexin V-FITC/PI staining based flow cytometry (reference value: 2.13 %); format: functional
Hep 3B2 [5] = test: Induction of cell cycle arrest at S phase in human Hep3B cells at 10 uM measured after 72 hrs by PI/RNase staining based flow cytometry (reference value: 31.90 %); format: functional
Hep 3B2 [6] = test: Induction of apoptosis in human Hep3B cells assessed as necrotic cells at 10 uM measured after 72 hrs by Annexin V-FITC/PI staining based flow cytometry (reference value: 2.74 %); format: functional
[7] = Antiproliferative activity against human LX2 cells incubated for 120 hrs by MTT assay; format: toxicity, cell-based; settings: LX-2 cells
HCCLM3 [8] = test: Antitumor activity against human HCCLM3 cells xenografted in BALB/c nude mouse at 60 mg/kg, ip for 27 days relative to control; format: functional; settings: time 27 day
Hep 3B2 [9] = test: Synergistic antiproliferative activity against human Hep3B cells measured after 72 hrs in presence of FK866; format: functional, cell-based
Huh-7 [10] = test: cells; settings: Homo sapiens, Huh-7, 120 h
Hep 3B2 [11] = test: Antiproliferative activity against human Hep3B cells measured after 72 hrs; format: functional, cell-based
Hep 3B2 [12] = test: Induction of cell cycle arrest at G0/G1 phase in human Hep3B cells at 10 uM measured after 72 hrs by PI/RNase staining based flow cytometry (reference value: 56.73 %); format: functional
Hep 3B2 [13] = test: Induction of apoptosis in human Hep3B cells assessed as viable cells at 10 uM measured after 72 hrs by Annexin V-FITC/PI staining based flow cytometry (reference value: 94.08 %); format: functional
HCCLM3 [14] = test: Antiproliferative activity against human HCCLM3 cells incubated for 120 hrs in presence of FK866 by MTT assay; format: functional, cell-based; settings: HCCLM3, 120 h
[15] = Antiproliferative activity against human LX2 cells incubated for 120 hrs in presence of FK866 by MTT assay; format: toxicity, cell-based; settings: LX-2 cells
HCCLM3 [16] = test: cells; settings: Homo sapiens, HCCLM3, 120 h
Hep 3B2 [17] = test: Induction of cell cycle arrest at G2/M phase in human Hep3B cells at 10 uM measured after 72 hrs by PI/RNase staining based flow cytometry (reference value: 11.37 %); format: functional
Hep 3B2 [18] = test: Induction of apoptosis in human Hep3B cells assessed as late apoptotic cells at 10 uM measured after 72 hrs by Annexin V-FITC/PI staining based flow cytometry (reference value: 1.05 %); format: functional
Huh-7 [19] = test: Antiproliferative activity against human Huh-7 cells incubated for 120 hrs in presence of FK866 by MTT assay; format: functional, cell-based; settings: Huh-7, 120 h
Hep 3B2 [20] = test: Synergistic antiproliferative activity against human Hep3B cells measured after 72 hrs in presence of JQ1; format: functional, cell-based
HCCLM3 [21] = test: Antiproliferative activity against human HCCLM3 cells incubated for 120 hrs in presence of JQ1 by MTT assay; format: functional, cell-based; settings: HCCLM3, 120 h
[22] = Antiproliferative activity against human LX2 cells incubated for 120 hrs in presence of JQ1 by MTT assay; format: toxicity, cell-based; settings: LX-2 cells
Huh-7 [23] = test: Antiproliferative activity against human Huh-7 cells incubated for 120 hrs in presence of JQ1 by MTT assay; format: functional, cell-based; settings: Huh-7, 120 h

Chain of Nicotinamide phosphoribosyltransferase (P43490 whole entry): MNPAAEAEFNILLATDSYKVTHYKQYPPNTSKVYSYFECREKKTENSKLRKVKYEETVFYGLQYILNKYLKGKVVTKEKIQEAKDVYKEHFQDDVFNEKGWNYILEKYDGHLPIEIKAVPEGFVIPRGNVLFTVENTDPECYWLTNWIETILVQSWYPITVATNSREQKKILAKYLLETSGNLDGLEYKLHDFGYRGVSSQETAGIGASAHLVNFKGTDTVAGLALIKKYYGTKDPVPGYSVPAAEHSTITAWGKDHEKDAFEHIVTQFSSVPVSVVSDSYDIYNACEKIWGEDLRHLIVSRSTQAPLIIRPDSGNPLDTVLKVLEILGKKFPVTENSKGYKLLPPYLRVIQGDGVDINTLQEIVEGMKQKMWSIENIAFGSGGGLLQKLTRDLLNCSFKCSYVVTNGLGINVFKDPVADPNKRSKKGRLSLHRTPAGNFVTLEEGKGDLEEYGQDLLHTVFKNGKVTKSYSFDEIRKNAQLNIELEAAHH

SMILES | IC50 [1] | IC50 [2] | IC50 (Hep 3B2 [3]) | also measured
Cc1sc2c(c1C)C(c1ccc(Cl)cc1)=N[C@@H](CC(=O)N1CCC(CCCNC(=O)/C=C/c3cccnc3)CC1)c1nnc(C)n1-2 | 165 nM | 615 nM | 4820 nM | 
Cc1sc2c(c1C)C(c1ccc(Cl)cc1)=N[C@@H](CC(=O)OC(C)(C)C)c1nnc(C)n1-2 |  |  | 5000 nM | Activity (Hep 3B2 [4]): 16.25%; Activity (Hep 3B2 [5]): 17.92%; Activity (Hep 3B2 [6]): 3.54%; IC50 at 120 h [7]: < 32 nM; TGI (HCCLM3 [8]): 51.08%; IC50 (Hep 3B2 [9]): 1550 nM; IC50 (Huh-7 [10]): 62800 nM; IC50 (Hep 3B2 [11]): 5000 nM; Activity (Hep 3B2 [12]): 73.49%; Activity (Hep 3B2 [13]): 74.38%; IC50 (HCCLM3 [14]): 400 nM; IC50 at 120 h [15]: < 32 nM; IC50 (HCCLM3 [16]): 86200 nM; Activity (Hep 3B2 [17]): 8.59%; Activity (Hep 3B2 [18]): 5.83%; IC50 (Huh-7 [19]): 670 nM
Cc1sc2c(c1C)C(c1ccc(Cl)cc1)=N[C@@H](CC(=O)NCc1ccc(CNC(=O)/C=C/c3cccnc3)cc1)c1nnc(C)n1-2 | 199 nM | 129 nM | 4550 nM | 
Cc1sc2c(c1C)C(c1ccc(Cl)cc1)=N[C@@H](CC(=O)N1CCC(CCNC(=O)/C=C/c3cccnc3)CC1)c1nnc(C)n1-2 | 87 nM | 180 nM | 6260 nM | 
Cc1sc2c(c1C)C(c1ccc(Cl)cc1)=N[C@@H](CC(=O)NCCCCCNC(=O)/C=C/c1cccnc1)c1nnc(C)n1-2 | 115 nM | 387 nM | 11300 nM | 
Cc1sc2c(c1C)C(c1ccc(Cl)cc1)=N[C@@H](CC(=O)NCCNC(=O)/C=C/c1cccnc1)c1nnc(C)n1-2 | 410 nM | 50 nM | 12900 nM | 
Cc1sc2c(c1C)C(c1ccc(Cl)cc1)=N[C@@H](CC(=O)N1CCC(CCCCNC(=O)/C=C/c3cccnc3)CC1)c1nnc(C)n1-2 | 35 nM | > 1000 nM | 8080 nM | 
Cc1sc2c(c1C)C(c1ccc(Cl)cc1)=N[C@@H](CC(=O)NCCOCCNC(=O)/C=C/c1cccnc1)c1nnc(C)n1-2 | 167 nM | 315 nM | 27300 nM | 
Cc1sc2c(c1C)C(c1ccc(Cl)cc1)=N[C@@H](CC(=O)NCCCCCCNC(=O)/C=C/c1cccnc1)c1nnc(C)n1-2 | 12 nM | 153 nM | 8140 nM | 
Cc1sc2c(c1C)C(c1ccc(Cl)cc1)=N[C@@H](CC(=O)N1CCC(CNC(=O)/C=C/c3cccnc3)CC1)c1nnc(C)n1-2 | > 1000 nM | 141 nM | 5730 nM | 
Cc1sc2c(c1C)C(c1ccc(Cl)cc1)=N[C@@H](CC(=O)NCc1ccc(NC(=O)/C=C/c3cccnc3)cc1)c1nnc(C)n1-2 | 309 nM | 319 nM | 9560 nM | 
O=C(/C=C/c1cccnc1)NCCCCC1CCN(C(=O)c2ccccc2)CC1 [DAPORINAD] |  |  | 53700 nM | Activity (Hep 3B2 [4]): 5.13%; Activity (Hep 3B2 [5]): 28.62%; Activity (Hep 3B2 [6]): 3.67%; IC50 at 120 h [7]: 210 nM; IC50 (Hep 3B2 [20]): 1550 nM; IC50 (HCCLM3 [21]): 400 nM; inhibition in vivo at 60 mg/kg (HCCLM3 [8]; Mus musculus, HCCLM3, 648 h, read-out: TGI): 50.1%; IC50 at 120 h [22]: < 32 nM; IC50 (Huh-7 [23]): 670 nM; IC50 (Huh-7 [10]): 2120 nM; IC50 (Hep 3B2 [11]): 53700 nM; Activity (Hep 3B2 [12]): 63.07%; viability at 10 µM (Hep 3B2 [13]; Homo sapiens, Hep3B, read-out: Activity): 86.9%; IC50 (HCCLM3 [16]): 1010 nM; Activity (Hep 3B2 [17]): 8.31%; Activity (Hep 3B2 [18]): 4.26%
Cc1sc2c(c1C)C(c1ccc(Cl)cc1)=N[C@@H](CC(=O)NCCOCCOCCNC(=O)/C=C/c1cccnc1)c1nnc(C)n1-2 | 13 nM | 525 nM | 21900 nM | 
Cc1sc2c(c1C)C(c1ccc(Cl)cc1)=N[C@@H](CC(=O)N1CCC(NC(=O)/C=C/c3cccnc3)CC1)c1nnc(C)n1-2 | > 1000 nM | 276 nM | 5390 nM | 
Cc1sc2c(c1C)C(c1ccc(Cl)cc1)=N[C@@H](CC(=O)Nc1ccc(NC(=O)/C=C/c3cccnc3)cc1)c1nnc(C)n1-2 | 456 nM | > 1000 nM | 24700 nM | 
Cc1sc2c(c1C)C(c1ccc(Cl)cc1)=N[C@@H](CC(=O)NCCCCNC(=O)/C=C/c1cccnc1)c1nnc(C)n1-2 | 10 nM | 127 nM | 9090 nM | 
Cc1sc2c(c1C)C(c1ccc(Cl)cc1)=N[C@@H](CC(=O)Nc1ccc(CCNC(=O)/C=C/c3cccnc3)cc1)c1nnc(C)n1-2 | 17 nM | > 1000 nM | 11700 nM | 
